The text below walks through data of patent publication US12065443B2, “Compounds and pharmaceutical compositions thereof for the treatment of diseases” (priority 2017, dated 2024).

Common to all, as to assay: biochemical
Assay [1] deals with T1, SIK2 (Homo sapiens, UniProt Q9H0K1).
T1 construct: purchased ThermoFisher Scientific PV4792
The note with it: 33P radioactive SIK kinase assay, AMARA peptide, 10 μM ATP. The method, then:
(§1) The principle of the ^33P radioactive kinase assay consists in measuring the incorporated ^33P into the substrate AMARA peptide when phosphorylated by SIK1, SIK2 or SIK3 using [^33P]-g-ATP, which correlates with kinase activity.
(§2) 1% DMSO and 10 μM staurosporine final concentrations are used as negative and positive controls.
(§3) 11 μL of enzyme-substrate mixture is added on the assay plates. The reactions are started by adding 9 μL ATP mixture, consisting of non-labeled and ^33P-labeled ATP, on the assay plates.
(§4) The reactions are stopped by adding 25 μL phosphoric acid (150 mM) to the reactions.
(§5) After harvesting the kinase reactions, the filter plates are washed 6 times with phosphoric acid (75 mM). […] The top of the plates are sealed with TopSeal-A. Read-out is performed with a TopCount instrument (PerkinElmer Inc.).

Assay [2] has as its target T2, SIK1 (Homo sapiens, UniProt P57059).
T2 construct: purchased Carna Biosciences 02-131
The following applies: 33P radioactive SIK kinase assay, AMARA peptide, 10 μM ATP; read-out: SIK1 IC50. The method, then:
as §1, §2, §3, §4, §5

Assay [3] has as its target T3, SIK3 (Homo sapiens, UniProt Q9Y2K2).
T3 construct: purchased SignalChem S12-11G-100
The method, then:
as §1, §2, §3, §4, §5

T2 sequence (P57059 whole entry): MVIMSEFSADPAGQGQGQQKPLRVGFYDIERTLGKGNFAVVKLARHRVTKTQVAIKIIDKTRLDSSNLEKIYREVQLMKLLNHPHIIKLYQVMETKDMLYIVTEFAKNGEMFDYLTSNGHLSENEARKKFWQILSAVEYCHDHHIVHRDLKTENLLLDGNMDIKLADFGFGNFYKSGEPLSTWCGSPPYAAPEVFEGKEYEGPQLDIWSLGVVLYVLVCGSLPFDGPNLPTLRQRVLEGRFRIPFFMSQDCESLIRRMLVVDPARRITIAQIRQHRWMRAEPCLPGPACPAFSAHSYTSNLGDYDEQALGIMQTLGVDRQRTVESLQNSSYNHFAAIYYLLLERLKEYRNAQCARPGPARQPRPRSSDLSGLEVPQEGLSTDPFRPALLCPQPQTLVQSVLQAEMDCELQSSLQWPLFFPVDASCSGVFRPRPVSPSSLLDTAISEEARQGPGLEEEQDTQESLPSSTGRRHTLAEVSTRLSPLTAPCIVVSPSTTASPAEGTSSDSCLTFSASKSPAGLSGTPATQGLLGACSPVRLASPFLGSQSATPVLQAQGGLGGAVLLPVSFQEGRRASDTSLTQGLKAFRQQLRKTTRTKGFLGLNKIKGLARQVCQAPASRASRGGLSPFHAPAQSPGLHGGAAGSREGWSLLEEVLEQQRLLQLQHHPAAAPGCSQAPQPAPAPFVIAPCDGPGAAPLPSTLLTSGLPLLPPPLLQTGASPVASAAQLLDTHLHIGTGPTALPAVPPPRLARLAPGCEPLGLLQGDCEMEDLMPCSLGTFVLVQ
T3 sequence (Q9Y2K2 whole entry): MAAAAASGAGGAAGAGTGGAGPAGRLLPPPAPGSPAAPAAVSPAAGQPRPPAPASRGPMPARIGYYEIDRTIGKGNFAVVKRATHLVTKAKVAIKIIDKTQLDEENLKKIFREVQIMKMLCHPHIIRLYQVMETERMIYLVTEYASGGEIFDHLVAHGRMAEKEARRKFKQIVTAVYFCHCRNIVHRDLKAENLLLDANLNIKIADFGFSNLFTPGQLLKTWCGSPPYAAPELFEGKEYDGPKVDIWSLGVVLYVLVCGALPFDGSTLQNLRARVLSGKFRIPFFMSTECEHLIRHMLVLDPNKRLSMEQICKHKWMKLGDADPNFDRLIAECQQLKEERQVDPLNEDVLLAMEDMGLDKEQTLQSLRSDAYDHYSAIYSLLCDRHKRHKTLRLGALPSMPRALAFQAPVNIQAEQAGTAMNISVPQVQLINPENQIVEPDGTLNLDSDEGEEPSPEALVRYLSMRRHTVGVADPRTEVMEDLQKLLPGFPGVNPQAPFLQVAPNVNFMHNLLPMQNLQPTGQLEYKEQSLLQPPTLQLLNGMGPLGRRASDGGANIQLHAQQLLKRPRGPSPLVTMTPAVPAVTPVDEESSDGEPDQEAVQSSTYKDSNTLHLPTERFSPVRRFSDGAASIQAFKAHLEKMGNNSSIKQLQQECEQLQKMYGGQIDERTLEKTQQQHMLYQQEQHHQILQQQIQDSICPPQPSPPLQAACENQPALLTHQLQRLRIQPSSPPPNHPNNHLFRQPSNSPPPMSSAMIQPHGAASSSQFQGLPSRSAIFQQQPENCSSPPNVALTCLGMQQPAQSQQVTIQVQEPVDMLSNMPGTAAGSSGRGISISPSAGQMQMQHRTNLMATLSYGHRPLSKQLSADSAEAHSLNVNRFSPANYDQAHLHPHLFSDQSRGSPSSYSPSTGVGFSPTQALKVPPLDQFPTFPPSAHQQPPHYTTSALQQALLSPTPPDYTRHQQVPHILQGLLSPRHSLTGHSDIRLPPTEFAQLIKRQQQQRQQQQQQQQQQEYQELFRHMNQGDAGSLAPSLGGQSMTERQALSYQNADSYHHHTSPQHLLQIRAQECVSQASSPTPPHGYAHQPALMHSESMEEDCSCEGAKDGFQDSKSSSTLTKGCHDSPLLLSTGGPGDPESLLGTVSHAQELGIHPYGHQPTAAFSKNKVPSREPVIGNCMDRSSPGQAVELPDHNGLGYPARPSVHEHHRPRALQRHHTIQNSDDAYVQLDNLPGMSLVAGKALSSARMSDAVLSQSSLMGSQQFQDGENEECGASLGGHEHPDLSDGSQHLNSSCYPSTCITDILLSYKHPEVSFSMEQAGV
T1 sequence (Q9H0K1 whole entry): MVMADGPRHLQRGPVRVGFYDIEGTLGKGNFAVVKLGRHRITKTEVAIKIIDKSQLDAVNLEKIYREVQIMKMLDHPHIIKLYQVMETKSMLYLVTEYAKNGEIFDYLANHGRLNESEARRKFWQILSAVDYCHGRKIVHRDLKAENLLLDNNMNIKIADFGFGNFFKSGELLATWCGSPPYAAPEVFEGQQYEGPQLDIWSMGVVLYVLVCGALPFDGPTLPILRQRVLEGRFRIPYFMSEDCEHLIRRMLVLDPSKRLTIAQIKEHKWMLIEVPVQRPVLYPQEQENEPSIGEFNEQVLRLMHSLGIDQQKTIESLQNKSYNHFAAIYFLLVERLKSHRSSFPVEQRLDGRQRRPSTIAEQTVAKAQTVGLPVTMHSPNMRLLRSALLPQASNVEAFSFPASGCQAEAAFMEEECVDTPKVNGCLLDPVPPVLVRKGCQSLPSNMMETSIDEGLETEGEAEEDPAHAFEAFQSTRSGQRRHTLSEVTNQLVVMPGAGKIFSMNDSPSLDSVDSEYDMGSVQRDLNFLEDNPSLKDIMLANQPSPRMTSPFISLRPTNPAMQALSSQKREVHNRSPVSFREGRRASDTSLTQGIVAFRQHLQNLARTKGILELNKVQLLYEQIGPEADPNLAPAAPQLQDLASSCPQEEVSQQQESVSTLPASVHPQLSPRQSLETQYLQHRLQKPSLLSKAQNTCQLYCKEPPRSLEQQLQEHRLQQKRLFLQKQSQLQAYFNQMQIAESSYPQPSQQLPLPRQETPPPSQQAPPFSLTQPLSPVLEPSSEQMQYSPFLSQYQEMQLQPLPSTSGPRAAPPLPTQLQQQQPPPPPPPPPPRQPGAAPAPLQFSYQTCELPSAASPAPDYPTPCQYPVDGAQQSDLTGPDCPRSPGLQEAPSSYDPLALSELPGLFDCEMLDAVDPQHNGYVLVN

In the case of `COc1cc(-n2cnc3cc(-c4cnn(C)c4)ccc32)cc(OC)c1C(=O)NC1CCC[C@H]1O` (stereo in doubt) [compound 140, N-[(1R,2R)-2-hydroxycyclopentyl]-2,6-dimethoxy-4-[5-(1-methylpyrazol-4-yl)benzimidazol-1-yl]benzamide], the IC50 in assay [1], in assay [2] and in assay [3] was 10 to 100 nM throughout.

As to `COc1cc(-n2cnc3cc(-c4cnn(C)c4)ccc32)cc(OC)c1C(=O)NC1CCC[C@@H]1O` (stereo in doubt) [compound 141, N-[(1R,2S)-2-hydroxycyclopentyl]-2,6-dimethoxy-4-[5-(1-methylpyrazol-4-yl)benzimidazol-1-yl]benzamide], the IC50 in assay [1], in assay [2] and in assay [3] was 10 to 100 nM each time.

With `COc1cc(-n2cnc3cc(-c4cnn(C)c4)ccc32)cc(OC)c1C(=O)Nc1cnc(C)cn1` [Cpd 70, 2,6-dimcthoxy-N-(5-methylpyrazin-2-yl)-4-[5-(1-methylpyrazol-4-yl)benzimidazol-1-yl]benzamide], the 50% inhibitory concentration (IC50) in assay [1] is 10 to 100 nM; in assay [2], 100 to 500 nM; in assay [3], 100 to 500 nM.

Regarding `COc1cc(-n2cnc3cc(-c4cnn(C)c4)ccc32)cc(OC(C)C)c1C(=O)NC1CC1` [Cpd 119, N-cyclopropyl-2-isopropoxy-6-methoxy-4-[5-(1-methylpyrazol-4-yl)benzimidazol-1-yl]benzamide], the IC50 in assay [1], in assay [2] and in assay [3] was 100 to 500 nM throughout.

On to `COc1cc(-n2cnc3cc(-n4ccc(C)n4)ccc32)cc(OC)c1C(=O)NCC(F)(F)F` [Cpd 154, 2,6-dimethoxy-4-[5-(3-methylpyrazol-1-yl)benzimidazol-1-yl]-N-(2,2,2-trifluoroethyl)benzamide], for which the IC50 in assay [1], in assay [2] and in assay [3] was 100 to 500 nM each time.

For `COc1cc(-n2cnc3cc(-n4nc(C)cc4C)ccc32)cc(OC)c1C(=O)NCC(F)(F)F` [Cpd 165, 4-[5-(3,5-dimethylpyrazol-1-yl)benzimidazol-1-yl]-2,6-dimethoxy-N-(2,2,2-trifluoroethyl)benzamide], the IC50 in assay [1], in assay [2] and in assay [3] was over 500 nM in each case.

Turning to `COc1cc(-n2cnc3cc(-n4cnc(C)n4)ccc32)cc(OC)c1C(=O)NCC(F)(F)F` [Cpd 166, 2,6-dimethoxy-4-[5-(3-methyl-1,2,4-triazol-1-yl)benzimidazol-1-yl]-N-(2,2,2-trifluoroethyl)benzamide], the results for the IC50 in assay [1], in assay [2] and in assay [3] were over 500 nM, over 500 nM and 100 to 500 nM, respectively.

Take `COc1cc(-n2cnc3cc(-c4nnc(C)o4)ccc32)cc(OC)c1C(=O)NCC(F)(F)F` [Cpd 167, 2,6-dimethoxy-4-[5-(5-methyl-1,3,4-oxadiazol-2-yl)benzimidazol-1-yl]-N-(2,2,2-trifluoroethyl)benzamide]: the IC50 is over 500 nM in assay [1], over 500 nM in assay [2] and 100 to 500 nM in assay [3].

For `COc1cc(-n2cnc3cc(-c4nnc(C)n4C)ccc32)cc(OC)c1C(=O)NCC(F)(F)F` [Cpd 168, 4-[5-(4,5-dimethyl-1,2,4-triazol-3-yl)benzimidazol-1-yl]-2,6-dimethoxy-N-(2,2,2-trifluoroethyl)benzamide], the half-maximal inhibitory concentration (IC50) in assay [1], in assay [2] and in assay [3] was over 500 nM in each case.

Take `COc1cc(-n2cnc3cc(-c4nc(C)no4)ccc32)cc(OC)c1C(=O)NCC(F)(F)F` [Cpd 169, 2,6-dimethoxy-4-[5-(3-methyl-1,2,4-oxadiazol-5-yl)benzimidazol-1-yl]-N-(2,2,2-trifluoroethyl)benzamide]: the IC50 in assay [1], in assay [2] and in assay [3] was over 500 nM in each case.

As for `CCn1cc(-c2ccc3c(c2)ncn3-c2cc(OC)c(C(=O)NCCO)c(OC)c2)cn1` [compound 5, 4-[5-(1-ethylpyrazol-4-yl)benzimidazol-1-yl]-N-(2-hydroxyethyl)-2,6-dimethoxy-benzamide], the IC50 in assay [1] was 10 to 100 nM; in assay [2], 100 to 500 nM; in assay [3] it was 10 to 100 nM.

Take `CCNC(=O)c1c(OC)cc(-n2cnc3cc(-c4cn(C)nc4C)ccc32)cc1OC` [compound 8, 4-[5-(1,3-dimethylpyrazol-4-yl)benzimidazol-1-yl]-N-ethyl-2,6-dimethoxy-benzamide]: the 50% inhibitory concentration (IC50) lay within 10 to 100 nM in assay [1], 100 to 500 nM in assay [2] and 100 to 500 nM in assay [3].

In the case of `CCNC(=O)c1c(O)cc(-n2cnc3cc(-c4cnn(CC)c4)ccc32)cc1OC` [compound 23, N-ethyl-4-[5-(1-ethylpyrazol-4-yl)benzimidazol-1-yl]-2-hydroxy-6-methoxy-benzamide], the concentration for half-maximal inhibition (IC50) in assay [1], in assay [2] and in assay [3] was 10 to 100 nM throughout.

Take `CCn1cc(-c2ccc3c(c2)ncn3-c2cc(OC)c(C(=O)N(C)CCOC)c(OC)c2)cn1` [compound 27, 4-[5-(1-ethylpyrazol-4-yl)benzimidazol-1-yl]-2,6-dimethoxy-N-(2-methoxyethyl)-N-methyl-benzamide]: the IC50 in assay [1], in assay [2] and in assay [3] was over 500 nM in each case.

`CCn1cc(-c2ccc3c(c2)ncn3-c2cc(OC)c(C(=O)N(C)CC(C)C)c(OC)c2)cn1` [compound 28, 4-[5-(1-ethylpyrazol-4-yl)benzimidazol-1-yl]-N-isobutyl-2,6-dimethoxy-N-methyl-benzamide]: the IC50 in assay [1], in assay [2] and in assay [3] was over 500 nM throughout.

Regarding `CCn1cc(-c2ccc3c(c2)ncn3-c2cc(OC)c(C(=O)N(C)CC#N)c(OC)c2)cn1` [compound 31, N-(cyanomethyl)-4-[5-(1-ethylpyrazol-4-yl)benzimidazol-1-yl]-2,6-dimethoxy-N-methyl-benzamide], the IC50 in assay [1] was 100 to 500 nM; in assay [2], 100 to 500 nM; in assay [3] it was 10 to 100 nM.

Take `COc1cncc(-c2ccc3c(c2)ncn3-c2cc(OC)c(C(=O)NCC(F)(F)F)c(OC)c2)c1` [compound 35, 2,6-dimethoxy-4-[5-(5-methoxy-3-pyridyl)benzimidazol-1-yl]-N-(2,2,2-trifluoroethyl)benzamide]: the IC50 was in the range of 100 to 500 nM in assay [1], 100 to 500 nM in assay [2] and 10 to 100 nM in assay [3].

In the case of `COc1cc(-n2cnc3cc(-c4ccc(C#N)nc4)ccc32)cc(OC)c1C(=O)NCC(F)(F)F` [compound 36, 4-[5-(6-cyano-3-pyridyl)benzimidazol-1-yl]-2,6-dimethoxy-N-(2,2,2-trifluoroethyl)benzamide], the figures for the half-inhibitory concentration (IC50) in assay [1], in assay [2] and in assay [3] were 10 to 100 nM, 100 to 500 nM and 10 to 100 nM, respectively.

Turning to `COc1cc(-n2cnc3cc(-c4ccc(N(C)C)nc4)ccc32)cc(OC)c1C(=O)NCC(F)(F)F` [compound 37, 4-[5-[6-(dimethylamino)-3-pyridyl]benzimidazol-1-yl]-2,6-dimethoxy-N-(2,2,2-trifluoroethyl)benzamide], the IC50 in assay [1], in assay [2] and in assay [3] was 100 to 500 nM in each case.

For `COc1cc(-n2cnc3cc(-c4ccc(N)nc4)ccc32)cc(OC)c1C(=O)NCC(F)(F)F` [compound 38, 4-[5-(6-amino-3-pyridyl)benzimidazol-1-yl]-2,6-dimethoxy-N-(2,2,2-trifluoroethyl)benzamide], the results for the IC50 in assay [1], in assay [2] and in assay [3] were 10 to 100 nM, 100 to 500 nM and 10 to 100 nM, respectively.

For the compound `COc1cc(-n2cnc3cc(-c4cccnc4)ccc32)cc(OC)c1C(=O)NCC(F)(F)F` [compound 39, 2,6-dimethoxy-4-[5-(3-pyridyl)benzimidazol-1-yl]-N-(2,2,2-trifluoroethyl)benzamide], the IC50 in assay [1] fell in the range of 10 to 100 nM; in assay [2], 100 to 500 nM; in assay [3], 10 to 100 nM.

Consider `CCn1cc(-c2ccc3c(c2)ncn3-c2cc(OC)c(C(=O)NC3CCCC3)c(OC)c2)cn1` [compound 45, N-cyclopentyl-4-[5-(1-ethylpyrazol-4-yl)benzimidazol-1-yl]-2,6-dimethoxy-benzamide], for which the IC50 in assay [1], in assay [2] and in assay [3] was 10 to 100 nM in each case.

As to `COc1cc(-n2cnc3cc(-c4cn[nH]c4)ccc32)cc(OC)c1C(=O)NCC(F)(F)F` [compound 47, 2,6-dimethoxy-4-[5-(1H-pyrazol-4-yl)benzimidazol-1-yl]-N-(2,2,2-trifluoroethyl)benzamide], the half-maximal inhibitory concentration (IC50) in assay [1] lay within 10 to 100 nM; in assay [2], 10 to 100 nM; in assay [3], 0.01 to 10 nM.

As for `COc1cc(-n2cnc3cc(-c4cnn(C)c4)ccc32)cc(OC)c1C(=O)NCCC#N` [compound 59, N-(2-cyanoethyl)-2,6-dimethoxy-4-[5-(1-methylpyrazol-4-yl)benzimidazol-1-yl]benzamide], the IC50 in assay [1], in assay [2] and in assay [3] was 10 to 100 nM throughout.

In the case of `COCCCNC(=O)c1c(OC)cc(-n2cnc3cc(-c4cnn(C)c4)ccc32)cc1OC` [compound 60], the IC50 in assay [1] was 10 to 100 nM; in assay [2], 10 to 100 nM; in assay [3] it was 100 to 500 nM.

For `COc1cc(-n2cnc3cc(-c4cnn(C)c4)ccc32)cc(OC)c1C(=O)NCc1ccn(C)n1` [compound 61], the IC50 is 100 to 500 nM in assay [1], over 500 nM in assay [2] and over 500 nM in assay [3].

The term IC50 denotes the concentration needed to halve the response being measured.
